These results are taken from patent US20240131180A1, “DRUG ANTIBODY CONJUGATES” (PHARMA MAR, S.A., priority 2020, published 2024).

Assay [1] has as its system SK-BR-3. The assay can be described thus: SRB cytotoxicity assay, SK-BR-3 (HER2+). The settings on record: Homo sapiens, SK-BR-3, 72 h, read-out: IC50 SK-BR-3. It is filed as cell-based. The method, then:
(§1) For SK-BR-3, HCC-1954, MDA-MB-231 and MCF-7 cells, a colorimetric assay using Sulforhodamine B (SRB) was adapted for quantitative measurement of cell growth and cytotoxicity, as described in V. Vichai and K. Kirtikara. Sulforhodamine B colorimetric assay for cytotoxicity screening. Nature Protocols, 2006, 1, 1112-1116. Briefly, cells were seeded in 96-well microtiter plates and allowed to stand for 24 hours in drug-free medium before treatment with vehicle alone or with the tested substances for 72 hours.
(§2) Cell survival was expressed as percentage of control, untreated cell survival.

Assay [2] has as its system MCF-7. The assay can be described thus: SRB cytotoxicity assay, MCF-7 (HER2-). It is filed as cell-based. To be noted: Homo sapiens, MCF7, 72 h, read-out: IC50 MCF-7. As to the method: as §1, §2
Background: In SRB staining, fixed cells bind dye roughly in proportion to their protein.

In assay [3] the test system is HCC-1954. Nature of the assay: SRB cytotoxicity assay, HCC-1954 (HER2+). It is filed as cell-based. To be noted: Homo sapiens, HCC1954, 72 h, read-out: IC50 HCC-1954. As to the method:
as §1, §2

The test system of assay [4] is PSN1. The assay can be described thus: SRB colorimetric assay of cell growth and viability, PSN1. It is filed as cell-based. The settings on record: for LC50 / GI50: Homo sapiens; for LC50: PSN1, 72 h, read-out: LC50 PSN1; for GI50: PSN1, NCI algorithm; for GI50 / TGI PSN1: 72 hours treatment, SRB; for TGI PSN1: total cell growth inhibition. From the text: (§3) Using the mean±SD of triplicate cultures, a dose-response curve was automatically generated using nonlinear regression analysis.

The test system of assay [5] is HT29. The assay can be described thus: SRB colorimetric assay of cell growth and viability, HT29. It is filed as cell-based. To be noted: for CC50 / GI50: Homo sapiens; for CC50: HT-29, 72 h, read-out: LC50 HT29; for GI50: HT-29, NCI algorithm; for GI50 / TGI HT29: 72 hours treatment, SRB; for TGI HT29: total cell growth inhibition.
Description: as §3

Assay [6] concerns MDA-MB-231. Nature of the assay: SRB colorimetric assay of cell growth and viability, MDA-MB-231. It is filed as cell-based. To be noted: for LC50 / GI50: Homo sapiens; for LC50: MDA-MB-231, 72 h, read-out: LC50 MDA-MB-231; for GI50: MDA-MB-231, NCI algorithm; for GI50 / TGI MDA-MB-231: 72 hours treatment, SRB; for TGI MDA-MB-231: total cell growth inhibition.
Description: as §3

Assay [7] deals with MDA-MB-231. The assay can be described thus: SRB cytotoxicity assay, MDA-MB-231 (HER2-). It is filed as cell-based. To be noted: Homo sapiens, MDA-MB-231, 72 h, read-out: IC50 MDA-MB-231. The method, then:
as §1, §2

Assay [8] deals with A549. Nature of the assay: SRB colorimetric assay of cell growth and viability, A549. It is filed as cell-based. To be noted: for CC50 / GI50: Homo sapiens; for CC50: A549, 72 h, read-out: LC50 A549; for GI50: A549, NCI algorithm; for GI50 / TGI A549: 72 hours treatment, SRB; for TGI A549: total cell growth inhibition.
Description: as §3

Assay [9] relates to SK-BR-3, HCC-1954, MDA-MB-231 and MCF-7 cells. Nature of the assay: cells. It counts as cell-based. The settings on record: Homo sapiens, 72 h. As to the method:
as §1, §2

The test system of assay [10] is Lewis lung carcinoma. To be noted: very low concentrations; cited from earlier work.
Assay [11] has as its system B16 melanoma. The settings on record: very low concentrations; cited from earlier work.
Assay [12] concerns P388 lymphoma. To be noted: very low concentrations; cited from earlier work.
Where [13] appears, read: read-out: geometric mean IC50 value across the whole cell panel.

Molecules are shown by their SMILES. Several values for one entry are separate records, joined by “and”; a condition that tells them apart may be missing. Equal entries are not always repeated. Where two headings read alike, the source gives them in different places.

A word on the IC50: it is the concentration at which inhibition is half-maximal. For orientation: LC50 means the concentration that kills 50% of the test population. Broadly, the GI50 is the concentration giving 50% growth inhibition. The low end stands for more potent growth inhibition, the high end for less potent growth inhibition. As for `COc1ccc2[nH]c3c(c2c1)CCN[C@]31CS[C@@H]2c3c(OC(C)=O)c(C)c4c(c3[C@H](COC1=O)N1[C@@H]2[C@@H]2N[C@@H](Cc3cc(C)c(OC)c(O)c32)[C@@H]1O)OCO4` [Compound 1], the IC50 was 0.00086 µg/mL and 1.12 nM in assay [1]; 0.0012 µg/mL and 1.56 nM in assay [2]; 0.0015 µg/mL and 1.95 nM in assay [3]; 0.00068 µg/mL and 0.882 nM in assay [7]; 0.882 to 1.95 nM in assay [9] (read-out: IC50 values in all the tumor cell lines (range)); 1.32 nM in [9] (setting [13]). The LC50 in assay [4] came out at 2.34 nM; in assay [6], 2.46 nM. Moreover, the GI50 in assay [4] was determined as 1.22 nM; in assay [5], 1.28 nM; in [6], 0.752 nM; in [8], 1.82 nM. In [4], the “TGI PSN1” value came out at 1.69E−09 Molar. In addition, the results for the CC50 in assay [5] and in assay [8] were over 130 nM and 7.78 nM, respectively. The “TGI HT29” value in assay [5] is 1.43E−09 Molar. In addition, the “TGI MDA-MB-231” value in assay [6] is 1.30E−09 Molar. For the same compound, in assay [8], the “TGI A549” value was 3.37E−09 Molar.

Consider `COc1ccc2[nH]c3c(c2c1)CCN[C@]31CS[C@@H]2c3c(OC(C)=O)c(C)c4c(c3[C@H](COC1=O)N1[C@@H]2[C@@H]2N[C@@H](Cc3cc(C)c(OC)c(O)c32)[C@@H]1C#N)OCO4` [Compound 2], for which the IC50 is 0.00096 µg/mL and 1.23 nM in assay [1]; 0.0017 µg/mL and 2.18 nM in assay [2]; 0.0018 µg/mL and 2.31 nM in [3]; 0.00069 µg/mL and 0.885 nM in assay [7]; 1.53 nM in assay [9] (setting [13]). Besides, the figures for the LC50 in [4] and in assay [6] were 5 nM and 5.77 nM, respectively. The GI50 in [4] came to 2.05 nM; in assay [5], 5.13 nM; in assay [6], 5 nM; in [8], 12.8 nM. Besides, in [4], the “TGI PSN1” value worked out at 3.08E−09 Molar. Also, the figures for the CC50 in assay [5] and in assay [8] were at least 1280 nM and over 1280 nM, respectively. The “TGI HT29” value in assay [5] came to 5.64E−09 Molar. The “TGI MDA-MB-231” value in assay [6] turned out to be 5.26E−09 Molar. In assay [8], the “TGI A549” value is given as 1.28E−08 Molar.

For the compound `COc1ccc2[nH]c3c(c2c1)C[C@H](CO)N[C@]31CS[C@@H]2c3c(OC(C)=O)c(C)c4c(c3[C@H](COC1=O)N1[C@@H]2[C@@H]2N[C@@H](Cc3cc(C)c(OC)c(O)c32)[C@@H]1C#N)OCO4` [Compound 10-R], in [4], the LC50 was over 123 nM, the GI50 was determined as 0.753 nM and the “TGI PSN1” value came to 1.48E−09 Molar. In [5], the CC50 is over 123 nM, halving of growth (GI50) required 0.864 nM and the “TGI HT29” value is 1.61E−09 Molar. Also, in assay [6], the LC50 was 3.09 nM, the 50% growth inhibitory concentration (GI50) came to 0.679 nM and the “TGI MDA-MB-231” value is listed as 1.21E−09 Molar. In addition, in assay [8], the CC50 was over 123 nM, the GI50 was 4.32 nM and the “TGI A549” value is recorded as 1.20E−08 Molar.

As for `COc1ccc2[nH]c3c(c2c1)C[C@H](CO)N[C@]31CS[C@@H]2c3c(OC(C)=O)c(C)c4c(c3[C@H](COC1=O)N1[C@@H]2[C@@H]2N[C@@H](Cc3cc(C)c(OC)c(O)c32)[C@@H]1O)OCO4` [Compound 11-R], in assay [4], the LC50 is 15 nM, the GI50 is 2.12 nM and the “TGI PSN1” value is 3.62E−09 Molar. Also, in assay [5], the CC50 is over 125 nM, the GI50 came to 2 nM and the “TGI HT29” value is on record as 3.62E−09 Molar. In [6], the LC50 stood at 7.24 nM, it took 1.62 nM to inhibit growth by half (GI50) and the “TGI MDA-MB-231” value amounted to 2.87E−09 Molar. In [8], the CC50 was over 125 nM, halving of growth (GI50) required 15 nM and the “TGI A549” value worked out at 4.50E−08 Molar.

As for `COc1c(C)cc2c(c1O)[C@H]1N[C@@H](C2)[C@H](C#N)N2[C@H]1[C@@H]1SC[C@]3(NCCc4c3oc3ccccc43)C(=O)OC[C@H]2c2c3c(c(C)c(OC(C)=O)c21)OCO3` [Compound 14], in assay [4], the LC50 amounted to 22.6 nM, the GI50 amounted to 9.72 nM and the “TGI PSN1” value was 1.33E−08 Molar. Besides, in assay [5], the CC50 is over 133 nM, the concentration for 50% growth inhibition (GI50) was determined as 8.52 nM and the “TGI HT29” value was 9.19E−09 Molar. Besides, in assay [6], the LC50 was 29.3 nM, it took 6.66 nM to inhibit growth by half (GI50) and the “TGI MDA-MB-231” value is 1.13E−08 Molar. In assay [8], the CC50 is over 133 nM, growth was halved (GI50) at 8.79 nM and the “TGI A549” value stood at 1.73E−08 Molar.

As for `COc1c(C)cc2c(c1O)[C@H]1N[C@@H](C2)[C@H](O)N2[C@H]1[C@@H]1SC[C@]3(NCCc4c3oc3ccccc43)C(=O)OC[C@H]2c2c3c(c(C)c(OC(C)=O)c21)OCO3` [Compound 15], in [4], the LC50 is 45.8 nM, halving of growth (GI50) required 9.98 nM and the “TGI PSN1” value came out at 1.48E−08 Molar. For the same compound, in [5], the CC50 is over 135 nM, the GI50 turned out to be 8.76 nM and the “TGI HT29” value is reported as 9.57E−09 Molar. For the same compound, in assay [6], the LC50 worked out at 24.3 nM, it took 7.14 nM to inhibit growth by half (GI50) and the “TGI MDA-MB-231” value is listed as 1.16E−08 Molar. In assay [8], the CC50 was over 135 nM, the GI50 amounted to 12.1 nM and the “TGI A549” value is recorded as 2.56E−08 Molar.

For the compound `COc1c(C)cc2c(c1O)[C@H]1N[C@@H](C2)[C@H](O)N2[C@H]1[C@@H]1SC[C@]3(NCCc4c3[nH]c3ccccc43)C(=O)OC[C@H]2c2c3c(c(C)c(OC(C)=O)c21)OCO3` [ET-722, Ecteinascidin 722], the “protection of mice in vivo against Lewis lung carcinoma” value in [10] is “protects mice in vivo at very low concentrations”. In assay [4], the LC50 was found to be 3.1 nM, the GI50 came to 1.48 nM and the “TGI PSN1” value was determined as 2.16E−09 Molar. Besides, in assay [5], the CC50 was over 135 nM, the GI50 was found to be 1.35 nM and the “TGI HT29” value stood at 1.48E−09 Molar. The “protection of mice in vivo against B16 melanoma” value in assay [11] is “protects mice in vivo at very low concentrations”. Further, in assay [6], the LC50 came out at 2.56 nM, growth was halved (GI50) at 0.891 nM and the “TGI MDA-MB-231” value is 1.48E−09 Molar. In assay [12], the “protection of mice in vivo against P388 lymphoma” value is given as “protects mice in vivo at very low concentrations”. Further, in [8], the CC50 is over 135 nM, the GI50 worked out at 1.35 nM and the “TGI A549” value is recorded as 1.35E−09 Molar.
